Reference: ChEMBL document CHEMBL4184093, “Effects of newly synthetized isoquinoline derivatives on rat uterine contractility and ROCK II activity” (Bioorg Med Chem Lett, 2018)
Activity calls are given as the source filed them. The rule behind the calls is not given here.

Key:
Uterus [1] = experiment: Inhibition of oxytocin-induced uterus contraction in non-pregnant Sprague-Dawley rat measured for 300 secs; assay type: functional, tissue-based
[2] = biological target: Rho-associated protein kinase 2 (Homo sapiens) (UniProt O75116); experiment: Inhibition of ROCK2 (unknown origin) at 200 uM using MYPT1 as substrate after 30 mins by immunoassay
Sequence of Rho-associated protein kinase 2 (Homo sapiens) (O75116 whole entry, looked up): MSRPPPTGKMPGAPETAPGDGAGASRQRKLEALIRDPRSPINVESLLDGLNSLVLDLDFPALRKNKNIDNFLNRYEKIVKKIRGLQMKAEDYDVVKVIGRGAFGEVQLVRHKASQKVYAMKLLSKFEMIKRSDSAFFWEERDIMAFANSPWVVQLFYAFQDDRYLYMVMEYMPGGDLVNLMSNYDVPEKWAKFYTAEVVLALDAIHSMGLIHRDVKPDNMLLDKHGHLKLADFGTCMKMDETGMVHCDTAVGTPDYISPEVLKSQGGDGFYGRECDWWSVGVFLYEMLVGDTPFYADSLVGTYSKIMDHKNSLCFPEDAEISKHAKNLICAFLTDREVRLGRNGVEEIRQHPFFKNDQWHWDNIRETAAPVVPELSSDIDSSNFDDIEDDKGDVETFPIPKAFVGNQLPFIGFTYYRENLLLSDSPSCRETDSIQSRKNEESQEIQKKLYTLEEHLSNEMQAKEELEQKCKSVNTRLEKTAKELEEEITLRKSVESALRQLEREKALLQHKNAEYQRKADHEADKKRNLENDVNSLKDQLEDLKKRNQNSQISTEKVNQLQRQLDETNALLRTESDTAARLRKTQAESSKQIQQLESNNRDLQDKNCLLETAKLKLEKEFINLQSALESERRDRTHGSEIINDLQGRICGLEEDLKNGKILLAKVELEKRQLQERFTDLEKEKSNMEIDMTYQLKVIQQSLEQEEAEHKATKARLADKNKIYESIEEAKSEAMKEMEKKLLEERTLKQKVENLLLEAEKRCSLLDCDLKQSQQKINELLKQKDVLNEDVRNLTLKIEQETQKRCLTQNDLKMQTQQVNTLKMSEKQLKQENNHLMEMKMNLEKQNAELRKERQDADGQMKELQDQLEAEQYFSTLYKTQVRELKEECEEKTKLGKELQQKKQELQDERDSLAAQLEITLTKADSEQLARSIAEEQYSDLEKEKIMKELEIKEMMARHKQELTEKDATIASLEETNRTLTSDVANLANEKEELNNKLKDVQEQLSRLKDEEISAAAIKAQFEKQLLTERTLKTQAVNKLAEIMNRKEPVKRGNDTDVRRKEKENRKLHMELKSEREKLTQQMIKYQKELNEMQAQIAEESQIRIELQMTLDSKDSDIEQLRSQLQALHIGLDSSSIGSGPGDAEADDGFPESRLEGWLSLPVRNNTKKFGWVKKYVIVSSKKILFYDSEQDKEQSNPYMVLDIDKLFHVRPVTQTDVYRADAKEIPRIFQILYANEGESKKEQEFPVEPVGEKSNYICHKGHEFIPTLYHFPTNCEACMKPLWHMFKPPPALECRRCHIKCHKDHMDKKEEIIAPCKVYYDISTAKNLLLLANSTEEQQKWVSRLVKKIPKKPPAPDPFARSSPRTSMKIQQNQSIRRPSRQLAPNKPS

Uterus [3] = experiment: Inhibition of oxytocin-induced uterus contraction in 20 days pregnant Sprague-Dawley rat at 10^-10 to 10^-5 M measured for 300 secs; assay type: functional, tissue-based
Uterus [4] = experiment: Inhibition of oxytocin-induced uterus contraction in Sprague-Dawley rat during parturition period at 10^-10 to 10^-5 M measured for 300 secs; assay type: functional, tissue-based

| IC50 (Uterus [1]) [nM] | ROCK2 inhibition activity call (active/not active) [2] | Structure (SMILES) | Emax (Uterus [1]) [%] | inhibition (Uterus [3]) | inhibition (Uterus [4]) |
| --- | --- | --- | --- | --- | --- |
| 495 | – | COc1cc2c(cc1OC)C1C(COC(=O)Nc3ccccc3)CN1CC2 (stereo not drawn) | 54.5 | – | – |
| 158 | Active | COc1cc2c(cc1OC)C(C(CO)CO)N(C(=S)Nc1ccccc1)CC2 (stereo not drawn) | 52.5 | Active | Active |
| 278 | – | COc1cc2c(cc1OC)C(C(CO)COC(=O)c1ccccc1)N(CCC#N)CC2 (stereo not drawn) | 53.3 | – | – |
| 522 | – | COc1cc2c(cc1OC)C1CCO/C(=N\Cc3ccccc3)N1CC2 (stereo not drawn) | 55.1 | – | – |
| 1190 | – | COc1cc2c(cc1OC)C(C(CO)COC(=O)c1ccccc1)N(C(=S)Nc1ccccc1)CC2 (stereo not drawn) | 83.5 | – | – |
| 610 | – | COc1cc2c(cc1OC)C(c1ccccc1)N(C1CCCC1O)CC2 (stereo not drawn) | 58.8 | – | – |
| 1080 | – | CCOc1cc2c(cc1OCC)C(CCO)N(C(=S)Nc1cccc(C(F)(F)F)c1)CC2 (stereo not drawn) | 84.7 | – | – |
| 13.3 | inactive | COc1cc2c(cc1OC)C1C(CO)COC(=N)N1CC2 (stereo not drawn) | 50.4 | – | – |
| 788 | – | COc1cc2c(cc1OC)C1C(Cc3ccccc3)CN1CC2 (stereo not drawn) | 57.2 | – | – |
| 263 | – | COc1cc2c(cc1OC)C(C(CO)CO)N(C(=O)c1ccc(C(F)(F)F)cc1)CC2 (stereo not drawn) | 66.4 | – | – |
| 1250 | – | COc1cc2c(cc1OC)C(CC#N)N(C(=O)Nc1cccc(C(F)(F)F)c1)CC2 (stereo not drawn) | 72.2 | – | – |
| 723 | – | COc1cc2c(cc1OC)C(C(CO)Cc1ccccc1)NCC2 (stereo not drawn) | 76.6 | – | – |
| 84.5 | inactive | COc1cc2c(cc1OC)C(C(CO)CO)N(C1CCCC1)CC2 (stereo not drawn) | 54.5 | – | – |

Further lines, the compound ahead of its results:

| Structure (SMILES) | IC50 (Uterus [1]) [nM] | ROCK2 inhibition activity call (active/not active) [2] | Emax (Uterus [1]) [%] | inhibition (Uterus [3]) | inhibition (Uterus [4]) |
| --- | --- | --- | --- | --- | --- |
| COc1ccc(CCNC2CCCCC2O)cc1OC (stereo not drawn) | 98.1 | inactive | 51.7 | – | – |
| CCOc1cc2c(cc1OCC)CN(C1CCCCC1O)CC2 (stereo not drawn) | 37.1 | inactive | 48 | – | – |
| COc1cc2c(cc1OC)C(C1CCc3nc(N4CCOCC4)[nH]c(=O)c3C1)=NCC2 (stereo not drawn) | 24.2 | inactive | 47.3 | – | – |
| O=S(=O)(c1cccc2cnccc12)N1CCCNCC1 [FASUDIL] | 781 | – | 87.4 | Active | Active |
| CCOc1ccc(CCN(CCO)C2CCCCC2O)cc1OCC (stereo not drawn) | 41.8 | Active | 46.3 | Active | Active |
| COc1cc2c(cc1OC)C1C(C)CN1CC2 (stereo not drawn) | 8.24 | inactive | 43.7 | – | – |
| COc1ccc(CCNC(=O)C(C)(C)C)cc1OC | 191 | – | 52.8 | – | – |
| C[C@@H](N)[C@H]1CC[C@H](C(=O)Nc2ccncc2)CC1 [Y-27632] | 505 | – | 82.3 | – | – |
| COc1ccc(Cc2nccc3cc(OC)c(OC)cc23)cc1OC [PAPAVERINE] | 420 | – | 98.5 | – | – |
| CCOc1ccc(/C=C2\NCCc3cc(OCC)c(OCC)cc32)cc1OCC [DROTAVERINE] | 1940 | – | 88.8 | – | – |
| COc1cc2c(cc1OC)C1(C)N(CC2)C(c2ccccc2)=NN1c1ccc(Cl)cc1 (stereo not drawn) | 258 | – | 53.2 | – | – |
| COc1ccc(CC[N+](C)(CCO)C2CCCCC2)cc1OC (stereo not drawn) | 18.9 | inactive | 49.6 | – | – |
| C#CC[N+]12CCc3cc(OC)c(OC)cc3C1C(CO)C2 (stereo not drawn) | 32.2 | inactive | 54.5 | – | – |
| COc1cc2c(cc1OC)C(C)N(C1CCCCC1O)CC2 (stereo not drawn) | 90.2 | inactive | 45.6 | – | – |
| CCOc1cc2c(cc1OCC)C1C(CO)CS/C(=N\c3ccc(C)cc3)N1CC2 (stereo not drawn) | 1170 | – | 82.5 | – | – |
